The values below come from patent US5187074A, “Method of hydroxylation with ATCC 55086” (Merck & Co., Inc., priority 1992, dated 1993).

This assay addresses T1, HIV protease (Human immunodeficiency virus type 1 group M subtype B, UniProt P12497).
T1 construct: HIV protease expressed in Escherichia coli; made in house; host or cells: Escherichia coli
In words: Assay for Inhibition of Recombinant HIV Protease (APRIN 2.1). Type of assay: biochemical. Particulars: pH 5.5, 60 min, 37° C. As to the method:
Assay for Inhibition of Recombinant HIV Protease (APRIN 2.1)
Inhibition studies were performed on the reaction of the HIV protease expressed in Escherichia coli with a tritiated peptide substrate [^3 H]-acetyl-Val-Ser-Gln-Asn-(beta-napthyl-Ala)-Pro-Ile-Val-Gln-Gly-Arg-Arg-NH2 (MW 1800). The two arginine residues at the carboxyl terminus give this peptide an overall positive charge at acidic pH and enable it to bind to the H^+ form of DOWEX AG-50W-X8 resin and similar resins.
Aliquots of 25 μl containing 6.0-8.0 nM HIV protease in assay buffer (100 mM sodium acetate, pH 5.5 and 0.1% BSA) are placed in assay tubes. The reaction is initiated by addition of 25 μl aliquots of 4.2 μM tritiated peptide substrate in 100 mM sodium acetate, pH 5.5. After incubation for 60 min at 37° C., the reaction is stopped with 100 μl of 5% H3 PO4, then analysed by application of column chromatography.

Turning to `CC(C)(C)OC(=O)N[C@@H](Cc1ccccc1)[C@@H](O)C[C@@H](Cc1ccc(OCCN2CCOCC2)cc1)C(=O)N[C@H]1c2ccccc2C[C@H]1O` [L-689,502, N-(cis-2(R)-hydroxy-1(S) -indanyl)-5(S)-(1,1-dimethylethoxycarbonylamino)-4(S)-hydroxy-6-phenyl-2(R)-[(4-(2-(4-morpholinyl)ethoxy)phenyl)methyl]-hexanamide], the inhibition at 0.000625 µg/mL (0.625 ng/ml, control) was -2%. The inhibition at 0.00125 µg/mL (1.25 ng/ml, control) was found to be 21%. Moreover, the inhibition at 0.0025 µg/mL (2.5 ng/ml, control) came out at 54%. Also, where the note is “5 ng/ml, control”, the inhibition at 0.005 µg/mL stood at 69%. Moreover, the inhibition at 0.01 µg/mL (10 ng/ml, control) is 86%.
Take `CC(C)(CO)OC(=O)N[C@@H](Cc1ccccc1)[C@@H](O)C[C@@H](Cc1ccc(OCCN2CCOCC2)cc1)C(=O)N[C@H]1c2ccccc2C[C@H]1O` [L-697,811]: the inhibition at 0.0116 µg/mL (11.6 ng/ml, major metabolite from culture S-29-145, read-out: APRIN 2.1 Act. (% Inhib.)) was 92%.
